The source of these data is patent publication US20230346654A1, “Anhydrous Urea Emulsions” (BAEK CLINICAL INC., priority 2020, published 2023).

Series [1] is described as follows: Assessment of solvents: ability to solubilize urea. To be noted: neat solvent.
Series [2] in a line: Solubility of optional additional components in non-aqueous solvents. Type of series: physicochemical. The source says:
(§1) AA refers to L-ascorbic acid. U refers to urea. % values are wt %.

Series [3] in a line: Assessment of solvents: gentleness or irritation on skin. To be noted: applied to skin; 1,3-propanediol even applied neat, or at 100% concentration.
Description: as §1

The conditions of series [4]: in most solvents; cited from earlier work.
For series [5] the following is noted: in vivo; cited from earlier work.
The conditions of series [6]: stated as well-known; cited from earlier work.
For series [7] the following is noted: concentrations of 0.2%; cited from earlier work.

Where two headings read alike, the source gives them in different places. Some results are limits rather than exact numbers.

As for `OCC(O)CO` [Glycerin, glycerol (1,2,3-propanetriol)], the “ability to solubilize urea” value in series [1] was “moderate”.
Regarding `CO[C@H]1CO[C@H]2[C@@H]1OC[C@H]2OC` [Dimethyl isosorbide], in series [1], the “ability to solubilize urea” value is listed as “very limited”.
On to `CC1(C)[C@@H](O[C@H]2O[C@H](C(=O)O)[C@@H](O)[C@H](O)[C@H]2O[C@@H]2O[C@H](C(=O)O)[C@@H](O)[C@H](O)[C@H]2O)CC[C@]2(C)[C@H]3C(=O)C=C4[C@@H]5C[C@@](C)(C(=O)O)CC[C@]5(C)CC[C@@]4(C)[C@]3(C)CC[C@@H]12` [glycyrrhizic acid, Glycyrrhizic acid], for which, in series [2] (in 1,3-propanediol), the “solubility” value is listed as “shows solubility”.
With `OCCCO` [1,3-propanediol], the gentleness on skin result in series [3] is given as “gentleness on skin”.
Turning to `COc1cc(CC(C(C)=O)C(C)=O)ccc1O` [Acetyl zingerone], the “solubility” value in series [2] (in 1,3 propanediol, 1,2 propanediol and 1,3 butanediol at 0.5-1%) is recorded as “readily soluble”.
As for `O=C(O)CCCCCCCC(=O)O` [AzA, Azelaic acid, reference compound], the “concentration that can be solubilized” value in series [2] (in 1,3 propanediol) is “up to 10%”; in series [2] (with 10% AA, 5% U in a 1,3 propanediol base), 7.5%. In addition, the “change of solubility in 1,3 propanediol” value in series [2] (in the presence of hydroxyethyl urea) was “slightly increased”. Besides, in series [4], the “solubility” value is “very poorly soluble”.
With `OCC(O)COCC(O)CO` (stereo not drawn) [diglycerin], the “ability to solubilize urea” value in series [1] is reported as “moderate”.
Still for that read-out and setting: with `OCCCCCO` [1,5-pentanediol] the entry was “moderate”.
For `CC(C)(CO)[C@@H](O)C(=O)NCCCO` [Panthenol], the “concentration at which inhibition of transepidermal water loss is apparent” value in series [5] is recorded as at least 1%.
As for `CC(O)CCO` (stereo not drawn) [1,3-butanediol], the gentleness on skin entry in series [3] is listed as “relatively gentle on skin”.
With `CC(O)CO` (stereo not drawn) [1,2-propanediol], the “ability to solubilize urea” value in series [1] is listed as “moderate”. Moreover, the “skin irritation and sensitivity” value in series [6] is “inducing skin irritation and sensitivity”.
For the compound Madecassoside, the “ability to reduce erythema (skin redness)” value in series [7] is given as “desirable ability to reduce erythema”. The “solubility” value in series [2] (at a concentration of 0.2% in 1,3 propanediol, 1,2 propanediol and 1,3 butanediol) is on record as “soluble”.
On to `CCCCC(O)CO` (stereo not drawn) [1,2-hexanediol], for which, in series [1], the “ability to solubilize urea” value is “moderate”.
